Among the data in patent US10669258B2, “3-sulfonyl-5-aminopyridine-2,4-diol APJ agonists” (BRISTOL-MYERS SQUIBB COMPANY, priority 2016, dated 2020) are EC50 values, retold here.

In one test the target is T1, human APJ receptor (Homo sapiens, UniProt P35414).
T1 construct: expressed in transfected cells; host or cells: HEK293
T1 sequence (P35414 1-380): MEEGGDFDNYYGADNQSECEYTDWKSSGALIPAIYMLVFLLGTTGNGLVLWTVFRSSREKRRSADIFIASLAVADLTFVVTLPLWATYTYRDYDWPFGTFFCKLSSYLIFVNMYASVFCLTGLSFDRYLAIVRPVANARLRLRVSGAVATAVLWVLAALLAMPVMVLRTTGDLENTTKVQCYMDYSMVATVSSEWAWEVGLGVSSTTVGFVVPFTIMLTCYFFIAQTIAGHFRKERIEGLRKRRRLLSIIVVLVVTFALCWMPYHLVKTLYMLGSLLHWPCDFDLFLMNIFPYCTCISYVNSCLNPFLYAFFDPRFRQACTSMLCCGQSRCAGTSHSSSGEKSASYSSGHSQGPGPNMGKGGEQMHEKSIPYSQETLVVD
Nature of the test: Intracellular cAMP accumulation assay (APJ hcAMP, HTRF). To be noted: HEK293 cells stably expressing human APJ receptor; inhibition of forskolin-mediated cAMP production; Table 1; read-out: hAPJ cAMP EC50 Potency range. The test is classed as cell-based. In a few lines: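 HEK293 cells stably expressing the receptor (5,000/well) treated with compound plus […] and 2 μM forskolin for 30 min at room temperature; cAMP by HTRF against a cAMP standard curve. EC50 from variable-slope sigmoidal fit; Ymax as % of (Pyr1)apelin-13 inhibition.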
(In general: Cyclic AMP is a second messenger, typically raised through Gs and lowered through Gi signalling.)
One may read the EC50 as the concentration at which the effect is half-maximal. Consider `CCCCc1nc(O)c(C(=O)N2CC[C@H](c3ccccc3)C2)c(O)c1N(CCC)c1ccccc1` [Example 069, (R)-(6-butyl-2,4-dihydroxy-5-(phenyl(propyl)amino)pyridin-3-yl)(3-phenylpyrrolidin-1-yl)methanone], for which the EC50 fell in the range of 10 to 100 nM.
For `CCCCc1nc(O)c(S(=O)(=O)c2ccc(-c3ccncc3C)cc2)c(O)c1N(C)c1ccc(Cl)cc1` [Example 108, 6-butyl-5-((4-chlorophenyl)(methyl)amino)-3-((4-(3-methylpyridin-4-yl)phenyl)sulfonyl)pyridine-2,4-diol], the EC50 lay in the range of 0.01 to 10 nM.
In the case of `CCCCc1nc(O)c(S(=O)(=O)c2ccc(-c3ccccc3C(=O)NC)cc2)c(O)c1N(CC)c1cc(C)cc(C)c1` [Example 182, 4′-((6-butyl-5-((3,5-dimethyphenyl)(ethyl)a-mino)-2,4-dihydroxypyridin-3-yl)sulfonyl)-N-methyl-[1,1′-biphenyl]-2-carboxamide], the EC50 lay within 0.01 to 10 nM.
As for `CCCCc1nc(O)c(S(=O)(=O)c2ccc(-c3ccccc3C(=O)N(C)C)cc2)c(O)c1N(C)c1ccccc1F` [Example 171, 4′-((6-butyl-5-((2-fluorophenyl)(methyl)a-mino)-2,4-dihydroxypyridin-3-yl)sulfonyl)-N,N-dimethyl-[1,1′-biphenyl]-2-carboxamide], the EC50 lay within 0.01 to 10 nM.
`CCN(c1ccccc1)c1c(CC2CC2)nc(O)c(S(=O)(=O)c2ccc(-c3ccc(F)nc3C)cc2)c1O` [Example 051, 6-(cyclopropylmethyl)-5-(ethyl(phenyl)amino)-3-((4-(6-fluoro-2-methylpyridin-3-yl)phenyl)sulfonyl)pyridine-2,4-diol]: the EC50 is 0.01 to 10 nM.
As to `CCCCc1nc(O)c(S(=O)(=O)c2ccc(-c3ccc(F)nc3)cc2)c(O)c1N(C)c1ccccc1` [Example 012, 6-butyl-3-((4-(6-fluoropyridin-3-yl)phenyl)sulfonyl)-5-(methyl(phenyl)amino)pyridine-2,4-diol], the EC50 lay within 0.01 to 10 nM.
Still for that read-out and setting: the value for `CCCCc1nc(O)c(S(=O)(=O)c2ccc(-c3cccnc3C)cc2)c(O)c1N(CC)c1ccccc1` [Example 079, 6-butyl-5-(ethyl(phenyl)amino)-3-((4-(2-methylpyridin-3-yl)phenyl)sulfonyl)pyridine-2,4-diol] was 0.01 to 10 nM.
For `CCCCc1nc(O)c(S(=O)(=O)c2ccc(-c3ccncc3C)cc2)c(O)c1N(C)c1cccc(C)c1` [Example 090, 6-butyl-5-(methyl(m-tolyl)amino)-3-((4-(3-methylpyridin-4-yl)phenyl)sulfonyl)pyridine-2,4-diol], the concentration for a half-maximal effect (EC50) was in the range of 0.01 to 10 nM.
As for `CCCCc1nc(O)c(S(=O)(=O)c2ccc(-c3ccnc(OC)c3)cc2)c(O)c1N(CC)c1ccccc1` [Example 081, 6-butyl-5-(ethyl(phenyl)amino)-3-((4-(2-methoxypyridin-4-yl)phenyl)sulfonyl)pyridine-2,4-diol], the EC50 is 0.01 to 10 nM.
As to `CCCCc1nc(O)c(S(=O)(=O)c2ccc(-c3ccccc3C(=O)NC)cc2)c(O)c1N(C)c1ccccc1C` [Example 206, 4′-((6-butyl-2,4-dihydroxy-5-(methyl(o-tolyl)amino)pyridin-3-yl)sulfonyl)-N-methyl-[1,1′-biphenyl]-2-carboxamide], the EC50 is 0.01 to 10 nM.
For `CCN(c1ccccc1)c1c(-c2cnc(C)s2)nc(O)c(S(=O)(=O)c2ccc(-c3cccc(C(=O)NC)c3)cc2)c1O` [Example 188, 4′-((5-(ethyl(phenyl)amino)-2,4-dihydroxy-6-(2-methylthiazol-5-yl)pyridin-3-yl)suflonyl)-N-methyl-[1,1′-biphenyl]-3-carboxamide], the EC50 lay within 0.01 to 10 nM.

Staying with this test, now noted: HEK293 cells stably expressing human APJ receptor; inhibition of forskolin-mediated cAMP production; Table 2; read-out: hAPJ cAMP EC50 Potency range.
As for `CCN(c1ccccc1)c1c(-c2ccn(C)n2)nc(O)c(C(=O)N2CCC(c3ccc(F)cc3F)C2)c1O` (stereo not drawn) [Example 207, (3-(2,4-difluorophenyl)pyrrolidin-1-yl)(5-(ethyl(phenyl)amino)-2,4-dihydroxy-6-(1-methyl-1H-pyrazol-3-yl)pyridin-3-yl)methanone], the EC50 was 0.01 to 10 nM.
